Source: patent publication US8937167B2 (Washington University, priority 2009, dated 2015)
Read-outs that look alike come from different tables or passages of the source.

Tests used:
[1] = system: UTI89 biofilm; experiment: UTI89 type 1 dependent biofilm formation (inhibition/prevention) assay on PVC, crystal violet; format: cell-based, uropathogenic E. coli UTI89
Summary of the method: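 Prevention: UTI89 grown in LB in PVC wells at 23° C with mannoside at varying concentrations for 48 h, then crystal violet stained and quantified. Disruption: 24 h UTI89 biofilm, mannoside added, grown 16 h more, then crystal violet.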

[2] = system: UTI89; experiment: Mouse UTI model, bladder bacterial titers (CFU); format: in vivo, E. coli (UPEC); host C3H/HeN mouse; settings: UTI89; 6 hpi; mannoside IP 30 min prior and/or TMP-SMZ 3 days in drinking water
Description: For mannoside treatment, bacteria were incubated with 1 mM ZFH56 prior to inoculation. Every 24 h for 3 days, mice were transurethrally inoculated with 1 mM ZFH56. For antibiotic treatment, mice were inoculated with UTI89 and immediately given antibiotics in the drinking water for 3 days. Antibiotics used were trimethoprim-sulfamethoxazole (SXT) at […], respectively. For dual treatment, bacteria were incubated with 1 mM ZFH56 prior to inoculation. Every 24 h for 3 days, mice were transurethrally inoculated with 1 mM ZFH56. Additionally, mice were immediately given antibiotics in the drinking water for 3 days as in the antibiotic only treatment. Urine was collected every day for 13 days. At 2 weeks, mice were sacrificed and bladders were titered.
UTI89 biofilm was grown in LB+/− mannoside for 24 h at 22° C. in PVC plates and quantitated using crystal violet. UTI89 biofilm for confocal microscopy was grown in LB for 24 h at 22° C. on PVC coverslips. Mannoside was then added and biofilm was grown for an additional 16 h. Coverslips were then washed in PBS, fixed in 2% paraformaldehyde and stained with SYTO9 prior to confocal microscopy. For all animal experiments UTI89 or PBC-1 was grown 2×24 h statically in LB at 37° C. and inoculated at a dose of 1×10^7 bacteria in 50 μl. All mice used were female C3H/HeN (Jackson). For the pretreatment studies, bacteria were incubated with mannoside for 20 min prior to inoculation into the mouse. […] For CFU counts, bladders were harvested at 6 hpi and placed in 1 mL PBS. Bladders were then homogenized, diluted and plated on LB. After growth at 37° C. overnight, bacterial counts were determined. LacZ staining and gentamicin protection assays were performed at 6 hpi. […] Water was changed daily with fresh antibiotics. Standard growth curve assays and hemagglutination assays were performed with TMP-SMZ. All statistical analysis performed was a two-tailed Mann-Whitney U test.
Animal infections. Bacteria were grown under type 1 pili-inducing conditions (2×24 h at 37° C. statically in LB). The bacteria were harvested and resuspended to an OD600 of 0.5 in PBS. Eight-week-old C3H/HeN (Harlan) female mice were anesthetized by inhalation of isoflurane and infected via transurethral catheterization with 50 μl of the bacterial suspension, resulting in 1-2×10^7 inoculum. At 6 hpi, mice were sacrificed by cervical dislocation under anesthesia and the bladders were immediately harvested and processed as described below. All animal studies using mice were approved by the Animal Studies Committee of Washington University (Animal Protocol Number 20100002).
Bladder tissue bacterial titer determination. Mannoside ZFH-2056 was administered either IP (5 mg/kg) or orally (100 mg/kg) 30 min prior to inoculation with UTI89. […]

[3] = system: PBC-1; experiment: Growth curve / MIC determination in LB; format: cell-based, E. coli (UPEC); settings: 100 μM mannoside, varying TMP-SMZ
Description: Growth curve. […] Mannoside ZFH-2056 was added at 100 μM. Growth curves were performed in a 96-well plate at 37° C. with A600 readings taken every 30 min for 8 h.
Mannoside 6 was added at 100 μM. Growth curves were performed in a 96-well plate at 37° C. with A600 readings taken every 30 min for 8 h. Minimum inhibitory concentration (MIC) was calculated as the lowest concentration of antibiotic that prevented growth of the bacterial strain.

| SMILES | IC50 ([1]; Escherichia coli, read-out: Biofilm Prevention IC50) [nM] | IC50 ([1]; read-out: biofilm inhibition IC50) [nM] | bladder bacterial CFUs [2] | effect on efficacy of TMP-SMZ killing in vitro [3] |
| --- | --- | --- | --- | --- |
| COC(=O)c1cccc(-c2ccc(O[C@H]3O[C@H](CO)[C@@H](O)[C@H](O)[C@@H]3O)cc2)c1 [Compound 1, phenyl mannoside, reference compound] | 940 |  |  |  |
| CNC(=O)c1cc(C(=O)NC)cc(-c2ccc(O[C@H]3O[C@H](CO)[C@@H](O)[C@H](O)[C@@H]3O)cc2)c1 [ZFH-2056] |  | 740 | significant drop in bacterial load | not found to increase the efficacy of TMP-SMZ killing |
